Assay results from PMC5983770, “Preferential Inhibition of Wnt/β-Catenin Signaling by Novel Benzimidazole Compounds in Triple-Negative Breast Cancer” (International Journal of Molecular Sciences, 2018).
≈ marks a conversion by molar mass, not a printed value. Where two headings read alike, the source gives them in different places.

B1: Mesd: an LRP6 antagonist (protein, UniProt Q14696 34-234, looked up)
LRP chaperone MESD: AEGSPGTPDESTPPPRKKKKDIRDYNDADMARLLEQWEKDDDIEEGDLPEHKRPSAPVDFSKIDPSKPESILKMTKKGKTLMMFVTVSGSPTEKETEEITSLWQGSLFNANYDVQRFIVGSDRAIFMLRDGSYAWEIKDFLVGQDRCADVTLEGQVYPGKGGGSKEKNKTKQDKGKKKKEGDLKSRSSKEENRAGNKREDL

Assays:
[1] = system: MDA-MB-231 cells; test: Annexin V/PI apoptosis assay (flow cytometry); type: cell-based, human; conditions: 48 h; for apoptosis compared to DMSO / scatterplot quadrant Q1 (Annexin V/PI) / scatterplot quadrant Q3 (Annexin V/PI) / scatterplot quadrant Q2 (Annexin V/PI) / scatterplot quadrant Q4 (Annexin V/PI): MDA-MB-231, 5 µM; for percentage of MDA-MB-231 cells in the late apoptotic phase (% of total): 5 µM, vehicle control 8.1%; for scatterplot quadrant Q1 (Annexin V/PI): DMSO 1.1; for scatterplot quadrant Q3 (Annexin V/PI): DMSO 3.4; for scatterplot quadrant Q2 (Annexin V/PI): DMSO 8.1; for scatterplot quadrant Q4 (Annexin V/PI): DMSO 87.5
Experimental: (§1) Cells were seeded in 6-well tissue-culture treated plates (Corning) for overnight incubation. Culture media was replaced with growth media containing 1% FBS. Cells were treated with compounds for 48 h prior to harvest. Apoptosis/necrosis was detected by the FITC Annexin V Apoptosis Detection Kit I from Becton Dickinson (San Jose, CA, USA). Cells positive for Annexin V, propidium iodide (PI) or both were all designated as apoptotic.

[2] = system: MDA-MB-468 cells; test: Annexin V/PI apoptosis assay (flow cytometry); type: cell-based, human; conditions: MDA-MB-468, 5 µM, 48 h
Experimental: as §1

[3] = system: SUM149, SUM159, MDA-MB-231 and MDA-MB-468 TNBC cell lines
Experimental: (§3) MCF10A and TNBC cells (2 × 10^3) were seeded with appropriate growth media containing 10% FBS in each well of tissue culture-treated 96-well black plates (Corning #3904) (Corning, NY, USA) 16 h prior to treatment. […] Cell viability was then evaluated with Cell Titer Glo (Promega, Madison, WI, USA) and luminescence was measured using a TOPCount NXT plate reader (PerkinElmer, Waltham, MA, USA). Curves were fit according to nonlinear regression and IC50 values were calculated using GraphPad Prism 7. Cells were treated in quadruplicates and experiments were performed three times.

[4] = cited from earlier work
[5] = system: phosphorylated LRP6; test: Western blot of phosphorylated LRP6 in MCF10A cells; type: cell-based; conditions: 2.5 or 5 µM, 18 h
Experimental: (§2) Cells were seeded in 6-well tissue-culture treated plates for 48 h until 80% confluency prior to treatment. Whole cell extracts were prepared with Laemmli buffer (5% SDS, 10% glycerol, 0.5 M Tris-Cl) supplemented with protease and phosphatase inhibitors and equivalent amounts of proteins were separated by SDS-PAGE. Proteins were transferred to polyvinylidene difluoride (PVDF) membrane (Bio-Rad, Hercules, CA, USA) and blocked with 5% BSA in tris-buffered saline (TBS) supplemented with 0.1% Tween-20 for 1 h. Membranes were incubated with primary antibody overnight on a shaker at 4 °C. They were then washed and incubated with secondary antibody for 1 h. Bands were visualized with the Enhanced Chemiluminescence Detection reagents (PerkinElmer).

[6] = system: active (non-phosphorylated) β-catenin; test: Western blot of active β-catenin after cytoplasmic-nuclear fractionation; type: cell-based, human; conditions: 5 µM, 18 h; for nuclear active β-catenin expression (Western blot): TNBC cells
Experimental: as §2
Cells were lysed using the CERI and CERII reagents of the cytoplasmic-nuclear extraction kit (ThermoFisher), to obtain cytoplasmic fractions following treatment. Nuclear fractions were isolated by using 1× Laemmli buffer and sonication for a few seconds. Membrane was incubated overnight with active β-catenin (MilliporeSigma, Burlington, MA, USA), lamin A/C and tubulin antibodies.

[7] = system: noncancerous MCF10A cells; test: In vitro cytotoxicity (Cell Titer Glo cell viability); type: cell-based; conditions: Homo sapiens, MCF-10A; 0–5 µM, 72 h
Experimental: as §3

[8] = system: cyclin D1 and survivin; test: Western blot of cyclin D1 and survivin in TNBC cells; type: cell-based, human; conditions: 2.5 and 5 µM, 18 h
Experimental: as §2

[9] = system: p4EBP1 (mTOR signaling); test: Western blot of 4EBP1 phosphorylation (mTOR signaling) in MCF10A cells; type: cell-based; conditions: 18 h
Experimental: as §2

[10] = system: SUM149, SUM159, MDA-MB-231 and MDA-MB-468 TNBC cell lines; test: In vitro cytotoxicity (Cell Titer Glo cell viability); conditions: for IC50: Homo sapiens, 72 h, read-out: IC50 values for TNBC cell lines (cell viability); for selective cytotoxicity against TNBC cell lines compared to MCF10A cells: TNBC cell lines versus MCF10A cells
Experimental: as §3

[11] = system: phosphorylated LRP6; test: Western blot of phosphorylated LRP6 in TNBC cell lines; type: cell-based, human; conditions: both TNBC cell lines (MDA-MB-231, MDA-MB-468), 18 h
Experimental: as §2

[12] = system: pSTAT3 (Y705), STAT3; test: Western blot of STAT3 phosphorylation and STAT3β isoform; type: cell-based; conditions: for expression of the pSTAT3β and total STAT3β isoform (lower band): MDA-MB-468 and MCF10A cells; for expression of the pSTAT3β and total STAT3β isoform (lower band) / STAT3 phosphorylation: 18 h; for STAT3 phosphorylation: TNBC and MCF10A cells, 2.5 or 5 µM
Experimental: as §2

[13] = system: Wnt/β-catenin signaling; conditions: cited from earlier work
[14] = system: p4EBP1 (mTOR signaling); test: Western blot of 4EBP1 phosphorylation (mTOR signaling) in TNBC cell lines; type: cell-based, human; conditions: for phosphorylation of 4EBP1: both TNBC cell lines, 18 h
Experimental: as §2

[15] = system: active β-catenin; test: Immunocytochemistry of active β-catenin; type: cell-based, human; conditions: MDA-MB-231 and MDA-MB-468 cells, 5 µM, 18 h
Experimental: Cells were seeded on coverslips for 48 h prior to treatment with DMSO and SR compounds for 18 h. Cells were washed with PBS, fixed with 4% paraformaldehyde for 20 min and permeabilized with 0.5% Triton X-100 for 20 min. Following blocking with 3% BSA for 30 min, cells were incubated overnight with active β-catenin antibody (MilliporeSigma) at 4 °C. Cells were incubated with Alexa 488 goat anti-mouse secondary antibody (1:1000) at room temperature for 1 h. To counterstain, cells were incubated with 1:5000 Hoechst 33342 for 20 min. […] Images were obtained at 20× magnification.

[16] = pH 7.4; introduction, no reference given; cited from earlier work
[17] = rat liver microsomes; introduction, no reference given; cited from earlier work
[18] = system: phosphodiesterase; set-up: method as in PMID 22264761; conditions: screen of thirty 6-nitrobenzimidazoles; cited from earlier work
[19] = system: Wnt/β-catenin signaling; test: Effect on Wnt/β-catenin signaling (Western blot); type: cell-based; conditions: as summarised in the abstract
Experimental: as §2

[20] = system: Notch signaling (Hes1); test: Western blot of Notch signaling (Hes1); type: cell-based; conditions: as summarised in the abstract
Experimental: as §2

[21] = system: cyclin D1 and survivin; test: Western blot of cyclin D1 and survivin in MCF10A cells; type: cell-based; conditions: 2.5 µM, 18 h, compared with niclosamide
Experimental: as §2

[22] = set-up: method as in PMID 20194742; conditions: cited from earlier work

Row | Molecule | apoptosis compared to DMSO [1] | apoptosis compared to DMSO [2] | phosphorylated LRP6 [5] | IC50 [7] [nM] | percentage of MDA-MB-231 cells in the late apoptotic phase (% of total) [1] [%] | scatterplot quadrant Q1 (Annexin V/PI) [1] | scatterplot quadrant Q3 (Annexin V/PI) [1] | scatterplot quadrant Q2 (Annexin V/PI) [1] | scatterplot quadrant Q4 (Annexin V/PI) [1] | IC50 [10] [nM] | expression of the pSTAT3β and total STAT3β isoform (lower band) [12] | STAT3 phosphorylation [12] | other results
1 | 2-(5-Chloro-6-fluoro-1H-benzo[d]imidazol-2-yl)-4-fluorophenol [SRI35361] | did not induce significantly more apoptosis | did not induce significantly more apoptosis | – | – | – | – | – | – | – | – | – | – | selective cytotoxicity against TNBC cell lines compared to MCF10A cells [3]: not selectively cytotoxic
2 | C=CCN1CC(=O)N2[C@@H](Cc3ccc(OP(=O)([O-])[O-])cc3)C(=O)N(Cc3cccc4cn(C)nc34)C[C@@H]2N1C(=O)NCc1ccccc1.[Na+].[Na+] [CWP232228] | – | – | – | – | – | – | – | – | – | – | – | – | blood concentration ([4]; IV, 200 mg/kg, for 7 h): 800 ng/mL; toxicity in animals [4]: minimal toxicity and no obvious clinical signs
3 | Oc1ccc(Cl)cc1-c1nc2ccc(C(F)(F)F)cc2[nH]1 [SRI33576] | induced significantly more apoptosis | induced significantly more apoptosis | not | 5000 | 24 | 10.7 | 11.1 | 24.0 | 54.3 | 1900 to 3200 | not | noticeably less of an effect | nuclear active β-catenin expression (Western blot) [6]: decreased nuclear active β-catenin expression; expression of cyclin D1 and survivin [8]: decreased expression; phosphorylation of 4EBP1 ([9]; 5 µM): did not yield such a change; phosphorylated LRP6 ([11]; 5 µM): decreased phosphorylated LRP6; inhibition of Wnt/β-catenin signaling ([13]; colorectal cancer cells, decreasing cytosolic axin2 and β-catenin and overall c-myc, survivin and cyclin D1): inhibit Wnt/β-catenin signaling; phosphorylation of 4EBP1 ([14]; 5 µM): inhibited phosphorylation of 4EBP1; nuclear active β-catenin expression (immunocytochemistry) [15]: a decrease in nuclear active β-catenin expression
4 | Oc1ccc(F)cc1-c1nc2c(Cl)cc(Cl)cc2[nH]1 [SRI35357, 2-(5,7-Dichloro-3H-benzo[d]imidazol-2-yl)-4-fluorophenol] | – | – | – | – | – | – | – | – | – | – | – | – | selective cytotoxicity against TNBC cell lines compared to MCF10A cells [10]: not selectively cytotoxic
5 | O=C(Nc1ccc([N+](=O)[O-])cc1Cl)c1cc(Cl)ccc1O [niclosamide, reference compound] | – | – | decreased phosphorylated LRP6 | 1000 | 29.5 | 6.09 | 10.5 | 29.5 | 53.9 | 300 to 1000 | markedly decreased | downregulated STAT3 phosphorylation | solubility [16]: 1.6 µM (≈ 0.523 µg/mL); metabolic stability t1/2 [17]: 29 min
6 | O=[N+]([O-])c1ccc2nc(-c3cc(Cl)ccc3O)[nH]c2c1 [SRI32529] | – | – | – | – | – | – | – | – | – | – | – | – | outcome of screen for phosphodiesterase inhibitors [18]: not selected as one of the effective inhibitors; effect on Wnt/β-catenin signaling [19]: inhibited Wnt/β-catenin signaling; selective cytotoxicity against TNBC cell lines compared to MCF10A cells [10]: not selectively cytotoxic; effect on STAT3 signaling ([12]; as summarised in the abstract): mitigated; effect on Notch signaling [20]: mitigated; potency in inhibiting Wnt/β-catenin signaling relative to SRI33576 [13]: less potency; effect on mTOR signaling ([14]; as summarised in the abstract): mitigated
7 | Oc1ccc(Cl)cc1-c1nc2cc(Cl)c(Cl)cc2[nH]1 [SRI35889, 4-Chloro-2-(5,6-dichloro-1H-benzo[d]imidazol-2-yl)phenol] | induced significantly more apoptosis | induced significantly more apoptosis | not | 5400 | 26.5 | 15.1 | 11.0 | 26.5 | 47.4 | 1100 to 2400 | not | noticeably less of an effect | cyclin D1 or survivin expression [21]: did not affect cyclin D1 or survivin expression as much as niclosamide; cytoplasmic β-catenin (Western blot) ([6]; MDA-MB-468 cells): decreased cytoplasmic β-catenin; nuclear active β-catenin expression (Western blot) [6]: decreased nuclear active β-catenin expression; expression of cyclin D1 and survivin [8]: decreased expression; phosphorylation of 4EBP1 ([9]; 2.5 µM, compared with TNBC cell lines): less of a change; phosphorylated LRP6 ([11]; 2.5 and 5 µM): decreased phosphorylated LRP6; effect on Notch signaling [20]: not affecting; phosphorylation of 4EBP1 ([14]; 2.5 and 5 µM): inhibited 4EBP1 phosphorylation; nuclear active β-catenin expression (immunocytochemistry) [15]: a decrease in nuclear active β-catenin expression
8 | B1 | – | – | – | – | – | – | – | – | – | – | – | – | time of highest blood concentration ([22]; mice dosed with 5, 10, 20 mg/kg): 2 h; bioavailability ([22]; mice): about 60%
